#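 All cell lines were grown in 96-well plates and treated with compound for 48 hours. At the TGI there is no net growth.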
# Experiments:
# Assay in all cases: DTP human tumour cell line panel, 48 h
# [1] = test system: A498 renal
# [2] = test system: IGROV1 ovarian
# [3] = test system: SW-620 colon
# [4] = test system: HOP-62 NSCLC
# [5] = test system: OVCAR-3 ovarian
# [6] = test system: HL-60(TB) leukemia
# [7] = test system: SF-539 CNS
# [8] = test system: M14 melanoma
# [9] = test system: UO-31 renal
# [10] = test system: MOLT-4 leukemia
# [11] = test system: U251 CNS
# [12] = test system: SNB-19 CNS
# [13] = test system: NCI-H226 lung
# [14] = test system: ACHN renal
# [15] = test system: BT-549 breast
# [16] = test system: SK-MEL-5 melanoma
# [17] = test system: PC-3 prostate
# [18] = test system: SF-295 CNS
# [19] = test system: SR leukemia
# [20] = test system: UACC-62 melanoma
# [21] = test system: T-47D breast
# [22] = test system: OVCAR-5 ovarian
# [23] = test system: TK-10 renal
# [24] = test system: OVCAR-8 ovarian
# [25] = test system: LOX IMVI melanoma
# [26] = test system: MDA-N
# [27] = test system: MDA-MB-435
# [28] = test system: NCI-H23 lung
# [29] = test system: HCT-15 colon
# [30] = test system: OVCAR-4 ovarian
# [31] = test system: SK-MEL-2 melanoma
# [32] = test system: RXF 393 renal
# [33] = test system: SN12C renal
# [34] = test system: 786-0 renal
# [35] = test system: K-562 leukemia
# [36] = test system: HOP-92 NSCLC
# [37] = test system: RPMI-8226 leukemia
# [38] = test system: SK-MEL-28 melanoma
# [39] = test system: COLO 205 colon
# [40] = test system: CCRF-CEM leukemia
# [41] = test system: DU-145 prostate
# [42] = test system: MCF7 breast
# [43] = test system: UACC-257 melanoma
# [44] = test system: NCI-H460 lung
# [45] = test system: HT29 colon
# [46] = test system: KM12 colon
# [47] = test system: HCT-116 colon
# [48] = test system: EKVX NSCLC
# [49] = test system: CAKI-1 renal
# [50] = test system: MDA-MB-231 breast
# [51] = test system: SNB-75 CNS
# [52] = test system: NCI/ADR-RES ovarian
# [53] = test system: SK-OV-3 ovarian
# [54] = test system: A549 NSCLC
# [55] = test system: HS 578T breast
# [56] = test system: SF-268 CNS
# [57] = test system: MALME-3M melanoma
# [58] = test system: HCC-2998 colon
# [59] = test system: NCI-H522 lung
smiles,measurement,setting,value
O=C(O)C(=O)Cc1ccc2c(c1)OCO2,TGI,[1],> 100 µM
same,TGI,[2],> 100 µM
same,TGI,[3],> 100 µM
same,TGI,[4],> 100 µM
same,TGI,[5],> 100 µM
same,TGI,[6],> 100 µM
same,TGI,[7],> 100 µM
same,TGI,[8],> 100 µM
same,TGI,[9],> 100 µM
same,TGI,[10],> 100 µM
same,TGI,[11],> 100 µM
same,TGI,[12],> 100 µM
same,TGI,[13],> 100 µM
same,TGI,[14],> 100 µM
same,TGI,[15],> 100 µM
same,TGI,[16],> 100 µM
same,TGI,[17],> 100 µM
same,TGI,[18],> 100 µM
same,TGI,[19],> 100 µM
same,TGI,[20],> 100 µM
same,TGI,[21],> 100 µM
same,TGI,[22],> 100 µM
same,TGI,[23],> 100 µM
same,TGI,[24],> 100 µM
same,TGI,[25],> 100 µM
same,TGI,[26],> 100 µM
same,TGI,[27],> 100 µM
same,TGI,[28],> 100 µM
same,TGI,[29],> 100 µM
same,TGI,[30],> 100 µM
same,TGI,[31],> 100 µM
same,TGI,[32],> 100 µM
same,TGI,[33],> 100 µM
same,TGI,[34],> 100 µM
same,TGI,[35],> 100 µM
same,TGI,[36],> 100 µM
same,TGI,[37],> 100 µM
same,TGI,[38],> 100 µM
same,TGI,[39],> 100 µM
same,TGI,[40],67.1 µM
same,TGI,[41],> 100 µM
same,TGI,[42],> 100 µM
same,TGI,[43],> 100 µM
same,TGI,[44],> 100 µM
same,TGI,[45],> 100 µM
same,TGI,[46],> 100 µM
same,TGI,[47],> 100 µM
same,TGI,[48],> 100 µM
same,TGI,[49],> 100 µM
same,TGI,[50],> 100 µM
same,TGI,[51],> 100 µM
same,TGI,[52],> 100 µM
same,TGI,[53],> 100 µM
same,TGI,[54],> 100 µM
CON(C)C(=O)C(Cc1ccccc1)NC(=O)OC(C)(C)C (configuration not stated),TGI,[1],> 100 µM
same,TGI,[2],> 100 µM
same,TGI,[3],> 100 µM
same,TGI,[4],> 100 µM
same,TGI,[5],> 100 µM
same,TGI,[6],> 100 µM
same,TGI,[7],> 100 µM
same,TGI,[55],> 100 µM
same,TGI,[8],> 100 µM
same,TGI,[9],> 100 µM
same,TGI,[10],> 100 µM
same,TGI,[11],> 100 µM
same,TGI,[12],> 100 µM
same,TGI,[13],> 100 µM
same,TGI,[14],> 100 µM
same,TGI,[15],> 100 µM
same,TGI,[16],> 100 µM
same,TGI,[17],> 100 µM
same,TGI,[18],> 100 µM
same,TGI,[56],> 100 µM
same,TGI,[19],> 100 µM
same,TGI,[20],> 100 µM
same,TGI,[21],> 100 µM
same,TGI,[22],> 100 µM
same,TGI,[23],> 100 µM
same,TGI,[24],> 100 µM
same,TGI,[57],> 100 µM
same,TGI,[26],> 100 µM
same,TGI,[27],> 100 µM
same,TGI,[28],> 100 µM
same,TGI,[29],> 100 µM
same,TGI,[32],> 100 µM
same,TGI,[33],> 100 µM
same,TGI,[34],> 100 µM
same,TGI,[35],> 100 µM
same,TGI,[36],> 100 µM
same,TGI,[37],> 100 µM
same,TGI,[38],> 100 µM
same,TGI,[39],> 100 µM
same,TGI,[40],> 100 µM
same,TGI,[41],> 100 µM
same,TGI,[42],> 100 µM
same,TGI,[43],> 100 µM
same,TGI,[44],> 100 µM
same,TGI,[45],> 100 µM
same,TGI,[46],> 100 µM
same,TGI,[47],> 100 µM
same,TGI,[48],> 100 µM
same,TGI,[58],> 100 µM
same,TGI,[51],> 100 µM
same,TGI,[52],> 100 µM
same,TGI,[53],> 100 µM
same,TGI,[54],> 100 µM
CC(C)C1C(=O)N2CCCC2C2(O)OC(NC(=O)C3C=C4c5cccc6[nH]cc(c56)CC4N(C)C3)(C(C)C)C(=O)N12 (configuration not stated),TGI,[2],36.5 µM
same,TGI,[3],> 100 µM
same,TGI,[4],> 100 µM
same,TGI,[5],80.6 µM
same,TGI,[6],48.5 µM
same,TGI,[7],52.4 µM
same,TGI,[55],> 100 µM
same,TGI,[8],75.5 µM
same,TGI,[9],37 µM
same,TGI,[10],53.8 µM
same,TGI,[11],70.3 µM
same,TGI,[12],> 100 µM
same,TGI,[14],43.4 µM
same,TGI,[15],88.6 µM
same,TGI,[16],57.9 µM
same,TGI,[17],87.3 µM
same,TGI,[18],64.4 µM
same,TGI,[56],> 100 µM
same,TGI,[19],68.3 µM
same,TGI,[20],55.7 µM
same,TGI,[21],> 100 µM
same,TGI,[22],29.7 µM
same,TGI,[23],68.6 µM
same,TGI,[24],52.9 µM
same,TGI,[25],34.8 µM
same,TGI,[26],67.5 µM
same,TGI,[27],> 100 µM
same,TGI,[28],> 100 µM
same,TGI,[29],54.9 µM
same,TGI,[30],47.9 µM
same,TGI,[31],42.4 µM
same,TGI,[33],> 100 µM
same,TGI,[34],33 µM
same,TGI,[36],30.1 µM
same,TGI,[37],47.9 µM
same,TGI,[38],> 100 µM
same,TGI,[39],51.5 µM
same,TGI,[40],91.3 µM
same,TGI,[41],> 100 µM
same,TGI,[42],> 100 µM
same,TGI,[43],76.2 µM
same,TGI,[44],39.2 µM
same,TGI,[45],37.5 µM
same,TGI,[46],47.7 µM
same,TGI,[47],33.5 µM
same,TGI,[48],73.1 µM
same,TGI,[49],37.9 µM
same,TGI,[59],74.5 µM
same,TGI,[58],42.9 µM
same,TGI,[50],34.3 µM
same,TGI,[51],76.7 µM
same,TGI,[52],57.5 µM
same,TGI,[54],67.3 µM
COc1cc(-c2c[nH]c3ccccc23)nc(-c2c[nH]c3ccccc23)n1,TGI,[1],6.58 µM
same,TGI,[2],13.6 µM
same,TGI,[3],20.3 µM
same,TGI,[4],21 µM
same,TGI,[5],19.6 µM
same,TGI,[6],12.9 µM
same,TGI,[7],19.8 µM
same,TGI,[55],68 µM
same,TGI,[8],14.8 µM
same,TGI,[9],18.1 µM
same,TGI,[10],15.3 µM
same,TGI,[11],14.9 µM
same,TGI,[12],21 µM
same,TGI,[14],8.46 µM
same,TGI,[15],38.4 µM
same,TGI,[16],17.9 µM
same,TGI,[17],9.06 µM
same,TGI,[18],12.7 µM
same,TGI,[56],30.7 µM
same,TGI,[19],22.1 µM
same,TGI,[20],18.6 µM
same,TGI,[21],23.9 µM
same,TGI,[22],22.1 µM
same,TGI,[23],20.6 µM
same,TGI,[24],19.3 µM
same,TGI,[25],16.5 µM
same,TGI,[26],14.2 µM
same,TGI,[27],18.6 µM
same,TGI,[29],22.3 µM
same,TGI,[30],28.8 µM
same,TGI,[31],16.2 µM
same,TGI,[34],4.67 µM
same,TGI,[35],17.7 µM
same,TGI,[36],8.53 µM
same,TGI,[37],10.6 µM
same,TGI,[39],20.8 µM
same,TGI,[40],3.08 µM
same,TGI,[41],23.9 µM
same,TGI,[42],14.9 µM
same,TGI,[43],20.9 µM
same,TGI,[44],12.8 µM
same,TGI,[45],13.4 µM
same,TGI,[46],16.2 µM
same,TGI,[47],13.6 µM
same,TGI,[48],19 µM
same,TGI,[49],20.7 µM
same,TGI,[58],13 µM
same,TGI,[50],8 µM
same,TGI,[51],17.7 µM
same,TGI,[52],59.6 µM
same,TGI,[53],22.8 µM
same,TGI,[54],12.5 µM
